# Measured values: article PMC6661766, “Antimicrobial, antioxidant and cytotoxic evaluation of diazenyl chalcones along with insights to mechanism of interaction by molecular docking studies” (BMC Chemistry, 2019)
# Read-outs that look alike come from different tables or passages of the source.
# What was measured:
# [1] = system: B. subtilis; assay: Antimicrobial serial tube dilution, MIC and MBC; format: cell-based, Bacillus subtilis MTCC 2063; details: for MIC / MBC: Bacillus subtilis; for MIC: read-out: B. subtilis MIC; for MBC: read-out: B. subtilis MBC
# Procedure: (§1) The synthesized diazenyl chalcones (C18 to C27) and controls (dyes A and E, and chalcone) were assessed for their antimicrobial activity by estimation of MIC and MBC/MFC values. […] The stock solutions of the test compounds and standard drugs having a concentration of 1000 µg ml^−1 were prepared by dissolving the used compounds in DMSO. The nutrient broth/Sabouraud dextrose broth was used for the serial dilution of the test compounds and referenced drugs for bacterial and fungal cultures, respectively. […] The size of the final inoculum in each test tube was taken as 5 × 10^5 CFU ml^−1. The incubation of the test and standard compounds of varying concentrations was done for 24 h at 37 ± 2 °C (bacterial culture) and for 48 h at 37 ± 2 °C (C. albicans) and for 7 d at 25 ± 2 °C (A. fumigatus). The diazenyl chalcones (C18–C27), were further evaluated for their bactericidal/fungicidal activity by estimation of MBC/MFC values. […] For proper mixing of culture media, the plates were shaken gently followed by incubation at the predefined temperature and time as stated earlier, followed by the visual inspection of the plates for signs of microbial growth.
# [2] = system: B. cereus; assay: Antimicrobial serial tube dilution, MIC and MBC; format: cell-based, Bacillus cereus MTCC 1305
# Procedure: as §1
# [3] = system: C. albicans; assay: Antimicrobial serial tube dilution, MIC and MFC; format: cell-based, Candida albicans MTCC 227; details: for MIC / MFC: Candida albicans; for MIC: 48 h, read-out: C. albicans MIC; for MFC: read-out: C. albicans MFC
# Procedure: as §1
# [4] = system: A. fumigatus; assay: Antimicrobial serial tube dilution, MIC and MFC; format: cell-based, Aspergillus fumigatus MTCC 2584; details: for MIC / MFC: Aspergillus fumigatus; for MIC: 168 h, read-out: A. fumigatus MIC; for MFC: read-out: A. fumigatus MFC
# Procedure: as §1
# [5] = system: S. aureus; assay: Antimicrobial serial tube dilution, MIC and MBC; format: cell-based, Staphylococcus aureus MTCC 2901
# Procedure: as §1
# [6] = DPPH scavenging antioxidant assay
# Procedure: The derivatives (C18–C27) were assessed for their antioxidant potential in the presence of the stable free radical DPPH using ascorbic acid as the standard compound [36, 37]. […] The total volume of 200 µl was used in each well for each concentration of the test and standard drug containing 0.004 µg DPPH. The assay was performed in triplicate at all concentrations of each sample and standard compound. DPPH solutions in methanol at the same concentration without test drugs were used as the control. Each concentration of the sample and standard has a different blank. To minimize evaporation, the plate was covered with the lid and wrapped in aluminium foil and kept in the dark place in order to protect the DPPH radical from degradation by light and left for 30 min. After 30 min of incubation, the plate was kept in ELISA reader to measure the absorbance values at 517 nm. The experiment was performed in triplicate. The antioxidant activity of each sample was then calculated as per cent inhibition of DPPH according to the following equation: %decolourationofDPPH=ControlAbs-SampleAbs×100/ControlAbs
# [7] = system: E. coli; assay: Antimicrobial serial tube dilution, MIC and MBC; format: cell-based, Escherichia coli MTCC 1652
# Procedure: as §1
# [8] = system: S. typhi; assay: Antimicrobial serial tube dilution, MIC and MBC; format: cell-based, Salmonella typhi MTCC 3216; details: for MIC / MBC: Salmonella enterica, TYPHI; for MIC: 24 h, read-out: S. typhi MIC; for MBC: read-out: S. typhi MBC
# Procedure: as §1
# [9] = Bacillus cereus, 24 h, read-out: B. cereus MIC
# [10] = Bacillus cereus, read-out: B. cereus MBC
# [11] = Staphylococcus aureus, 24 h, read-out: S. aureus MIC
# [12] = Staphylococcus aureus, read-out: S. aureus MBC
# [13] = Escherichia coli, 24 h, read-out: E. coli MIC, 24 h at 37 ± 2 °C
# [14] = Escherichia coli, read-out: E. coli MBC
SMILES,MIC ([1]; 24 h) [µg/mL],MBC [1] [µg/mL],"MIC [2, 9] [µg/mL]","MBC [2, 10] [µg/mL]",MIC [3] [µg/mL],MFC [3] [µg/mL],melting point [°C],MIC [4] [µg/mL],MFC [4] [µg/mL],"MIC [5, 11] [µg/mL]","MBC [5, 12] [µg/mL]",% inhibition of DPPH ([6]; 1.56 µg ml^−1) [%],% inhibition of DPPH ([6]; 3.12 µg ml^−1) [%],% inhibition of DPPH ([6]; 6.25 µg ml^−1) [%],% inhibition of DPPH ([6]; 12.5 µg ml^−1) [%],% inhibition of DPPH ([6]; 25 µg ml^−1) [%],% inhibition of DPPH ([6]; 50 µg ml^−1) [%],% inhibition of DPPH ([6]; 100 µg ml^−1) [%],MIC [8] [µg/mL],MBC [8] [µg/mL],further results
"CC(=O)c1ccc(N=Nc2c(O)cccc2O)cc1 [Dye E, 1-(4-((2,6-Dihydroxyphenyl)diazenyl)phenyl)ethanone]",62.5,125,62.5,62.5,125,125,240 to 242,125,125,31.2,62.5,7.89,12.68,19.80,26.18,34.89,47.56,56.78,125,125,"IC50 DPPH [6]: 69.40 µg/mL; MIC [7, 13]: 31.2 µg/mL; MBC [7, 14]: 31.2 µg/mL"
"O=C(/C=C\c1ccccc1[N+](=O)[O-])c1cccc(N=Nc2cccc(Cl)c2Cl)c1O [Compound C-20, (2Z)-1-(3-((2,3-Dichlorophenyl)diazenyl)-2-hydroxyphenyl)-3-(2-nitrophenyl)prop-2-en-1-one]",62.5,125,125,125,125,250,105 to 107,125,125,125,125,8.15,9.87,10.51,14.32,18.96,20.76,29.39,125,125,"IC50 DPPH [6]: > 100 µg/mL; MIC [7, 13]: 125 µg/mL; MBC [7, 14]: 250 µg/mL"
"O=C(/C=C/c1ccc(Cl)cc1Cl)c1ccc(O)c(N=Nc2cccc(Cl)c2Cl)c1 [Compound C-18, (2E)-3-(2,4-Dichlorophenyl)-1-(3-((2,3-dichlorophenyl)diazenyl)-4-hydroxyphenyl)prop-2-en-1-one]",125,125,31.2,125,125,125,110 to 112,125,125,31.2,125,7.21,8.76,9.37,12.35,15.68,21.79,31.98,31.2,125,"IC50 DPPH [6]: > 100 µg/mL; E. coli MIC ([7]; 24 h at 37 ± 2 °C): 15.62 µg/mL; MIC [7, 13]: 7.81 to 15.6 µg/mL; MBC [7, 14]: 62.5 µg/mL"
"CC1=C(C(=O)O)N2C(=O)[C@@H](NC(=O)[C@H](N)c3ccc(O)cc3)[C@H]2SC1 [Cefadroxil, cefadroxil, reference compound]",–,125,–,–,–,–,–,–,–,–,–,–,–,–,–,–,–,–,125,125,MIC ([1]; 24 h at 37 ± 2 °C): 62.5 µg/mL; MIC ([2]; Bacillus cereus; 24 h at 37 ± 2 °C; read-out: B. cereus MIC): 31.2 µg/mL; MBC ([2]; Bacillus cereus; read-out: B. cereus MBC): 31.2 µg/mL; MIC ([5]; Staphylococcus aureus; 24 h at 37 ± 2 °C; read-out: S. aureus MIC): 15.6 µg/mL; MBC ([5]; Staphylococcus aureus; read-out: S. aureus MBC): 31.2 µg/mL; MIC ([7]; Escherichia coli; 24 h at 37 ± 2 °C; read-out: E. coli MIC): 31.2 µg/mL; MBC ([7]; Escherichia coli; read-out: E. coli MBC): 31.2 µg/mL
"O=C(/C=C\c1cccc(Br)c1)c1cccc(N=Nc2cc(Cl)ccc2Cl)c1O [Compound C-26, (2Z)-3-(3-Bromophenyl)-1-(3-((2,5-dichlorophenyl)diazenyl)-2-hydroxyphenyl)prop-2-en-1-one]",–,–,–,–,–,–,–,–,–,–,–,5.72,7.91,11.90,14.04,21.98,24.65,29.62,–,–,B. subtilis MBC [1]: 62.5 µg/mL; B. subtilis MIC ([1]; 24 h at 37 ± 2 °C): 62.5 µg/mL; B. cereus MBC [2]: 250 µg/mL; B. cereus MIC ([2]; 24 h at 37 ± 2 °C): 250 µg/mL; C. albicans MFC [3]: 125 µg/mL; C. albicans MIC ([3]; 48 h at 37 ± 2 °C): 125 µg/mL; A. fumigatus MFC [4]: 125 µg/mL; A. fumigatus MIC ([4]; 7 d at 25 ± 2 °C): 125 µg/mL; S. aureus MBC [5]: 31.25 µg/mL; S. aureus MIC ([5]; 24 h at 37 ± 2 °C): 7.81 µg/mL; log IC50 DPPH ([6]; Fig. 1): 1.349; E. coli MBC [7]: 125 µg/mL; E. coli MIC ([7]; 24 h at 37 ± 2 °C): 62.5 µg/mL; S. typhi MBC [8]: 62.5 µg/mL; S. typhi MIC ([8]; 24 h at 37 ± 2 °C): 15.62 µg/mL
